Literature values as cited in publication PMC12246617, “Cryo-EM structures reveal the PP2A–B55α and Eya3 interaction that can be disrupted by a peptide inhibitor” (The Journal of Biological Chemistry, 2025).

Test system: PP2A–B55
Details: 6,8-difluoro-4-methylumbelliferyl phosphate substrate; 30 mM Hepes [pH 7.0], 150 mM NaCl, 1 mM MnCl2, 1 mM DTT, 0.01% Triton X-100, 0.1 mg/ml BSA; ref 84 (Padi et al.); read-out: IC50 (phosphatase activity of PP2A–B55)
Text: To identify the factor that led to this discrepancy, we first repeated our as ...

**Q.** Which IC50 does the source give for “Eya3 peptide: Eya3 peptide (residues 62–108) of Padi et al. (RSSNDYTSQMYSAKPYAHILSVPVSETAYPGQTQYQTLQQTQPYAVY; UniProt Q99504 62-108, looked up, fragment)” here?
**A.** Its IC50 is 1100 ± 84 nM.
